Consider three compounds from publication PMC6299481, “Deciphering the Evolution of Cephalosporin Resistance to Ceftolozane-Tazobactam in Pseudomonas aeruginosa” (mBio, 2018).

In assay [1] the test system is E. coli DH10B pBC SK blaPDC-3 E221K. As to the kind of experiment: MIC, MH agar dilution (CLSI). Format: cell-based, Escherichia coli. The protocol: (§1) Variant genes were synthesized into the pBC SK (-) vector by Celtek Bioscience (Franklin, TN). Mueller-Hinton (MH) agar-dilution MIC measurements were performed against isogenic transformants producing PDC-3 and nine variants of PDC-3 in pBC SK (-) according to the Clinical and Laboratory Standards Institute (CLSI) guidelines as previously described ([39], [48]). Avibactam, LP-06, and S02030 were tested at a constant 4 µg/ml in combination with various concentrations of ceftazidime. Piperacillin-tazobactam was maintained at a ratio of 8 piperacillin to 1 tazobactam. Ceftolozane-tazobactam was maintained at a ratio of 2 ceftolozane to 1 tazobactam. The MICs are reported as the concentrations at which bacterial growth was no longer observed. All MIC measurements were performed at least three times.

For assay [2], the target named is T1, E221K variant of PDC-3 β-lactamase (Pseudomonas aeruginosa, UniProt P24735, E247K/T105A).
T1 construct: produces the corresponding PDC-3 protein without its signal peptide; made in house; host or cells: E. coli Origami 2 DE3, pET24a (+) blaPDC-3-E221K
Kind of assay: BATSI inhibition kinetics (IC50), nitrocefin reporter. Type of assay: biochemical. Conditions: E221K (20 nM); 5-min preincubation; 100 μM nitrocefin reporter substrate. As for the experimental part: (§2) Because of the time-dependent inhibition observed previously with some of the chiral boronates ([43]), the BATSIs were preincubated with enzyme for 5 min in phosphate-buffered saline before initiation of the reaction with the addition of substrate. The initial velocity (0 to 10 s) was measured in the presence of a constant concentration of enzyme (1.5 nM PDC-3 and 20 nM E221K) and increasing concentrations of the inhibitors against the fixed concentration (100 μM) of the indicator substrate, nitrocefin. The IC50 is the concentration of inhibitor that reduces the velocity by 50%. IC50 values were determined by fitting the initial velocity (v0) measurements to equation 2.(2) v0= Vmax[S]/Km[1+ I/IC50]+[S]

Assay [3] concerns the target T2, PDC-3 β-lactamase (Pseudomonas aeruginosa, UniProt P24735, T105A).
T2 construct: produces the corresponding PDC-3 protein without its signal peptide; made in house; host or cells: E. coli Origami 2 DE3, pET24a (+) blaPDC-3
The description is as above. Format: biochemical. To be noted: PDC-3 (1.5 nM); 5-min preincubation; 100 μM nitrocefin reporter substrate. The protocol:
as §2

Assay [4] concerns the target T1, E221K variant of PDC-3 β-lactamase. As to the kind of experiment: Thermal denaturation by circular dichroism. To be noted: 10 μM E221K with 200 μM inhibitor; CD, 20 to 80°C. Format: binding. The protocol:
(§3) Circular dichroism (CD) experiments were carried out in a Jasco (Easton, MD) J-815 spectrometer with a Peltier effect temperature controller. Quartz cells with a 0.1-cm path length were used for all experiments.
(§4) PDC-3 enzyme and the E221K variant (10 μM) with or without S02030 or LP-06 (200 μM) were monitored for thermal denaturation by CD at λ215 and λ221 between 20 and 80°C with a heating rate of 2°C/min. Two-state behavior was indicated by identical curves at each wavelength. Raw equilibrium denaturation data were normalized to the fraction of denatured protein (fU). With the assumption of a reversible two-state transition (N ↔ U), equilibrium constants (Keq) at any given temperature were calculated, as previously described ([32]), using equation 4 (4) Keq=fU/(1−fU)
(§5) The melting temperature Tm was determined at the midpoint of equilibrium folding (T = Tm) when ΔG = 0. (5) ln Keq=1/T (−ΔH/R)+ΔS/R
(§6) The free energy of unfolding was determined as previously described using the equation ΔΔGu = ΔTmΔSu^PDC-3 (Schellman), where ΔSu^PDC-3 = 0.326 ± 0.02 Kcal mol^−1 K^−1.

In assay [5] the target is T2, PDC-3 β-lactamase. As to the kind of experiment: Thermal denaturation by circular dichroism. Type of assay: binding. Conditions: 10 μM PDC-3 with 200 μM inhibitor; CD, 20 to 80°C. The protocol: as §3, §4, §5, §6
Assay [6] has as its system E. coli DH10B pBC SK blaPDC-1. As to the kind of experiment: MIC, MH agar dilution (CLSI). To be noted: Escherichia coli, β-lactam alone. Format: cell-based. The protocol: as §1
The test system of assay [7] is E. coli DH10B pBC SK blaPDC-3 E221A. As to the kind of experiment: MIC, MH agar dilution (CLSI). Format: cell-based. To be noted: Escherichia coli; β-lactam alone; E. coli DH10B pBC SK blaPDC-3 E221A (Table 2 prints E221). The protocol:
as §1

The test system of assay [8] is E. coli DH10B pBC SK blaPDC-3 E221G. As to the kind of experiment: MIC, MH agar dilution (CLSI). Format: cell-based. Conditions: Escherichia coli, β-lactam alone. As for the experimental part:
as §1

In assay [9] the test system is E. coli DH10B pBC SK blaPDC-3 G216A. As to the kind of experiment: MIC, MH agar dilution (CLSI). Format: cell-based. Conditions: Escherichia coli; β-lactam alone; E. coli DH10B pBC SK blaPDC-3 G216A (Table 2 prints G216). The protocol: as §1
Assay [10] has as its system E. coli DH10B pBC SK blaPDC-3 G216R. Kind of assay: MIC, MH agar dilution (CLSI). Format: cell-based. To be noted: Escherichia coli, β-lactam alone. The protocol: as §1
The test system of assay [11] is E. coli DH10B pBC SK blaPDC-3 V213A. Kind of assay: MIC, MH agar dilution (CLSI). Type of assay: cell-based. To be noted: Escherichia coli, β-lactam alone. The protocol:
as §1

Assay [12] relates to E. coli DH10B pBC SK blaPDC-3 V213G. As to the kind of experiment: MIC, MH agar dilution (CLSI). Type of assay: cell-based. To be noted: Escherichia coli, β-lactam alone. The protocol: as §1
In assay [13] the test system is E. coli DH10B pBC SK blaPDC-3 Y223A. As to the kind of experiment: MIC, MH agar dilution (CLSI). Type of assay: cell-based. To be noted: Escherichia coli, β-lactam alone. The protocol:
as §1

The test system of assay [14] is E. coli DH10B pBC SK blaPDC-3 Y223H. As to the kind of experiment: MIC, MH agar dilution (CLSI). Format: cell-based. To be noted: Escherichia coli, β-lactam alone. As for the experimental part: as §1
The subject of assay [15] is E. coli DH10B pBC SK blaPDC-3. As to the kind of experiment: MIC, MH agar dilution (CLSI). Type of assay: cell-based. Conditions: Escherichia coli, read-out: MIC value, β-lactam alone; E. coli DH10B pBC SK blaPDC-3. As for the experimental part: as §1
The next assay relates to E. coli DH10B pBC SK. Kind of assay: MIC, MH agar dilution (CLSI). Type of assay: cell-based. To be noted: Escherichia coli, DH10BPBCSK, β-lactam alone. The protocol:
as §1

For another assay, the system named is E. coli DH10B. Kind of assay: MIC, MH agar dilution (CLSI). Type of assay: cell-based. Conditions: Escherichia coli, β-lactam alone. As for the experimental part: as §1
Another assay relates to P. aeruginosa 18SH. Kind of assay: MIC, MH agar dilution (CLSI). Format: cell-based. Conditions: Pseudomonas aeruginosa, β-lactam alone, control strain expressing PDC-3. The protocol: as §1
Another assay concerns P. aeruginosa PAO1. As to the kind of experiment: MIC, MH agar dilution (CLSI). Type of assay: cell-based. Conditions: Pseudomonas aeruginosa; β-lactam alone; P. aeruginosa PAO1, control strain expressing PDC-1. As for the experimental part: as §1
For assay [16], the target named is T1, E221K variant of PDC-3 β-lactamase. Kind of assay: Steady-state hydrolysis kinetics. Type of assay: biochemical. As for the experimental part: (§7) Steady-state kinetic and inhibitor parameters were determined by using an Agilent 8453 diode array spectrophotometer at room temperature as previously described ([20], [43], [49]). Each assay was performed in 10 mM phosphate-buffered saline (PBS) at pH 7.4 at room temperature (RT = ∼25°C) in a quartz cuvette with a 1-cm path length. Measurements were obtained using ceftolozane and ceftazidime. The kinetic parameters, Vmax and Km, were obtained with a nonlinear least-squares fit of the data (Henri Michaelis-Menten, equation 1) using Origin 7.5VR (OriginLab, Northampton, MA).(1) v=Vmax [S]/Km+[S]

The target in assay [17] is T2, PDC-3 β-lactamase. As to the kind of experiment: Competitive inhibition assay with nitrocefin as reporter substrate (Ki app). Format: biochemical. As for the experimental part:
For competitive inhibition assays used to determine Ki app, 150 μM nitrocefin was used as the reporter substrate with increasing concentrations of ceftazidime or ceftolozane. Initial velocities were plotted against concentrations of ceftazidime or ceftolozane. Ki app obs were determined by dividing the slope by the y intercept. Ki app was calculated by correcting Ki app obs for nitrocefin affinity and concentration (equation 3). (3) Ki app=Ki app obs/[1+([NCF]/Km NCF)

The test system of assay [18] is E. coli DH10B strains expressing PDC-3 variants. As to the kind of experiment: MIC, MH agar dilution (CLSI), variant strains taken together. Format: cell-based, Escherichia coli. Conditions: oxyimino cephalosporin paired with avibactam. As for the experimental part: as §1
In assay [19] the target is T2, PDC-3 β-lactamase. Conditions: cited from earlier work; for Km: PDC-3, previously reported value; for kcat: PDC-3, reported value.
In assay [20] the target is T2, PDC-3 β-lactamase. Kind of assay: Steady-state hydrolysis kinetics. Format: biochemical. To be noted: reporter substrate with PDC-3. The protocol: as §7
Setting [21] is: substrate hydrolysis by E221K, 10 mM PBS pH 7.4, room temperature.

Where two headings read alike, the source gives them in different places.

Take `O=C(Cc1cccs1)N[C@@H](Cn1cc(C(=O)O)nn1)B(O)O` [S02030]: the “MICs of ceftolozane and ceftazidime combined with BATSI” value in [1] (strain expressing E221K, highest MICs among variant strains) fell in the range of 8 to 16 mg/L. In addition, the IC50 in [2] worked out at 769 ± 30 nM; at PDC-3 β-lactamase [3], 62 ± 2 nM. Moreover, the “increase in thermal stability (Tm) on inhibitor binding” value is 3 to 4 °C in assay [4] and 6 °C on PDC-3 β-lactamase [5].

On to `CC(C)(O/N=C(\C(=O)N[C@@H]1C(=O)N2C(C(=O)[O-])=C(C[n+]3ccccc3)CS[C@H]12)c1csc(N)n1)C(=O)O` [Ceftazidime], for which the MIC in [6] amounted to 2 µg/mL; in [7] it was 8 µg/mL; in assay [8], 32 µg/mL; in [9] it was 16 µg/mL; in assay [10], 32 µg/mL; in [11], 32 µg/mL. For the same compound, the minimum inhibitory concentration (MIC) in assay [12] stood at 16 µg/mL; in [13], 32 µg/mL; in [14], 16 µg/mL; in assay [15], 2 µg/mL; in the assay on E. coli DH10B pBC SK, 0.25 µg/mL; with E. coli DH10B, 0.25 µg/mL. The MIC in the assay on P. aeruginosa 18SH was found to be 64 µg/mL; in the assay on P. aeruginosa PAO1, 1 µg/mL; in [1] (Escherichia coli, read-out: MIC value), 64 µg/mL. Moreover, in assay [1] (E221K variant strain versus PDC-3 strain, E. coli DH10B), the “fold increase in MIC relative to the wild-type strain” value turned out to be 32 fold. Besides, the Km in assay [16] (setting [21]) is 174 ± 20 µM; on PDC-3 β-lactamase [19] (ref 20) it was 51.7 ± 2.1 µM; on PDC-3 β-lactamase [19] (ref 28) it was 35 µM. Moreover, in [16] (setting [21]), the Vmax amounted to 0.9 ± 0.1 µM/s. The figures for the kcat (in [16] (setting [21]); at PDC-3 β-lactamase [19] (ref 4); on PDC-3 β-lactamase [19] (ref 28)) were 9 ± 1 s⁻¹, 0.002 s⁻¹ and 0.02 s⁻¹, respectively. The compound also came in with a Ki on PDC-3 β-lactamase [17] (150 μM nitrocefin reporter substrate) of 22000 nM. For the same compound, the “fold difference in Ki app between ceftolozane and ceftazidime” value at PDC-3 β-lactamase [17] (ceftolozane Ki app higher than ceftazidime Ki app) is reported as around 60 fold. Besides, the “MICs when paired with avibactam” value in assay [18] is at most 1 mg/L.

For the compound `O=C(Cc1cccs1)N[C@@H]1C(=O)N2C(C(=O)O)=C(/C=C/c3ccc([N+](=O)[O-])cc3[N+](=O)[O-])CS[C@H]12` [nitrocefin], the Km in assay [16] (reporter substrate with E221K) turned out to be 17 ± 3 µM; on PDC-3 β-lactamase [20], 20 ± 2 µM.
